Assay results published in US6514911B1, “Substituted oxadiazines useful as pesticides” (Uniroyal Chemical Company, Inc., priority 2002, dated 2003).

Key:
[1] = tested on: velvetleaf (Abutilon theophrasti Medik.) (VL); test: Preemergence herbicide test, soil drench, velvetleaf; format: in vivo; conditions: 10 lbs/A (11.2 kg/ha) soil drench, two weeks after treatment, vs untreated checks; for pest or weed control at 11208.5 g/ha: Abutilon theophrasti, 336 h, read-out: Percent Weed Control VL
Procedure: (§1) To illustrate the effectiveness of the previously described substituted oxadiazines of this invention as preemergence herbicides, 300 mg of the chemical was dissolved in a composition comprising 10 mL acetone to which 30 mg of tile emulsifying agent, ethoxylated sorbitan monolaurate, was added. The solution was diluted to 100 mL with distilled water. Ten milliliters of this 3000 ppm solution was diluted to 250 ppm with distilled water. The chemical was applied at the rate of 10 pounds/acre (11.2 kg/ha) by drenchings 46 mL of the 250 ppm solution on the surface of soil in 4½ inch (11.25 cm) plastic pots wherein seeds of the following weeds had been planted: velvetleaf (Abutilon theophrasti Medik.) (VL), The percent control of the weeds compared to untreated checks was determined two weeks after treatment. TABLE 1 summarizes the results achieved with compounds formulated as indicated above, and the data clearly indicate the good to excellent herbicidal efficacy of compositions of this invention.

[2] = tested on: jimsonweed (Datura stramonium L.) (JW); test: Preemergence herbicide test, soil drench, jimsonweed; format: in vivo; conditions: 10 lbs/A (11.2 kg/ha) soil drench, two weeks after treatment, vs untreated checks
Procedure: as §1, with “jimsonweed (Datura stramonium L.) (JW),” for “velvetleaf (Abutilon theophrasti Medik.) (VL),”

[3] = tested on: prickly sida (Sida spinosa L.) (PS); test: Preemergence herbicide test, soil drench, prickly sida; format: in vivo; conditions: Sida spinosa, 336 h, 10 lbs/A (11.2 kg/ha) soil drench, two weeks after treatment, vs untreated checks, read-out: Percent Weed Control PS
Procedure: To illustrate the effectiveness of the previously described substituted oxadiazines of this invention as preemergence herbicides, 300 mg of the chemical was dissolved in a composition comprising 10 mL acetone to which 30 mg of tile emulsifying agent, ethoxylated sorbitan monolaurate, was added. The solution was diluted to 100 mL with distilled water. Ten milliliters of this 3000 ppm solution was diluted to 250 ppm with distilled water. […]
prickly sida (Sida spinosa L.) (PS),
(§2) The percent control of the weeds compared to untreated checks was determined two weeks after treatment. TABLE 1 summarizes the results achieved with compounds formulated as indicated above, and the data clearly indicate the good to excellent herbicidal efficacy of compositions of this invention.

[4] = tested on: tall morningglory (Ipomoea purpurea (L.) Roth) (TM); test: Preemergence herbicide test, soil drench, tall morningglory; format: in vivo; conditions: 10 lbs/A (11.2 kg/ha) soil drench, two weeks after treatment, vs untreated checks; for pest or weed control at 11208.5 g/ha: Ipomoea, 336 h, read-out: Percent Weed Control TM
Procedure: as §1, with “tall morningglory (Ipomoea purpurea (L.) Roth) (TM),” for “velvetleaf (Abutilon theophrasti Medik.) (VL),”

[5] = tested on: barnyardgrass (Echinochloa crus-galli (L.) Beauv.) (BG); test: Preemergence herbicide test, soil drench, barnyardgrass; format: in vivo; conditions: 10 lbs/A (11.2 kg/ha) soil drench, two weeks after treatment, vs untreated checks; for pest or weed control at 11208.5 g/ha: Echinochloa crus-galli, 336 h, read-out: Percent Weed Control BG
Procedure: as §1, with “barnyardgrass (Echinochloa crus-galli (L.) Beauv.) (BG), and” for “velvetleaf (Abutilon theophrasti Medik.) (VL),”

[6] = tested on: switchgrass (Panicum virgahim L.) (SG); test: Preemergence herbicide test, soil drench, switchgrass; format: in vivo; conditions: 10 lbs/A (11.2 kg/ha) soil drench, two weeks after treatment, vs untreated checks; for pest or weed control at 11208.5 g/ha: Panicum, 336 h, read-out: Percent Weed Control SG
Procedure: as §1, with “planted:” for “planted: velvetleaf (Abutilon theophrasti Medik.) (VL), The percent control of the weeds compared to untreated checks was determined two weeks after treatment. TABLE 1 summarizes the results achieved with compounds formulated as indicated above, and the data clearly indicate the good to excellent herbicidal efficacy of compositions of this invention.”
switchgrass (Panicum virgahim L.) (SG),
as §2

[7] = tested on: green foxtail (Setaria virdis (L.) Beauv.) (GF); test: Preemergence herbicide test, soil drench, green foxtail; format: in vivo; conditions: 10 lbs/A (11.2 kg/ha) soil drench, two weeks after treatment, vs untreated checks; for pest or weed control at 11208.5 g/ha: Setaria, 336 h, read-out: Percent Weed Control GF
Procedure: as §1, with “41⁄2” for “4½”, “green foxtail (Setaria […].) Beauv.) (GF).” for “velvetleaf (Abutilon theophrasti Medik.) (VL),”

insects = test: Insecticidal properties (no method given); conditions: statement in words, no test details

SMILES	pest or weed control at 11208.5 g/ha [1]	Percent Weed Control JW [2]	pest or weed control at 11208.5 g/ha [3]	pest or weed control at 11208.5 g/ha [4]	pest or weed control at 11208.5 g/ha [5]	pest or weed control at 11208.5 g/ha [6]	pest or weed control at 11208.5 g/ha [7]	Percent Weed Control VL [1]	Percent Weed Control TM [4]	Percent Weed Control BG [5]	Percent Weed Control SG [6]	Percent Weed Control GF [7]	insecticidal properties (insects)
FC(F)(F)C(F)(F)C(F)(F)C1=NC(C(F)(F)F)(C(F)(F)F)N=C(c2ccccc2)O1 [2-(heptafluoropropyl)-6-phenyl-4,4-bis(trifluoromethyl)-4H-1,3,5-oxadiazine, reference compound]	0%	0%	0%	0%	0%	0%	0%	–	–	–	–	–	–
FC(F)(F)c1cccc(C2=NC(C(F)(F)F)(C(F)(F)F)N=C(C(F)(F)C(F)(F)F)O2)c1 [Compound 14, 2-(pentafluoroethyl)-4,4-bis(trifluoromethyl)-6-{(3-trifluoromethyl)phenyl}-4H-1,3,5-oxadiazine]	–	100%	–	–	–	–	–	100%	100%	100%	100%	100%	found to have insecticidal properties
FC(F)(F)Oc1ccc(C2=NC(C(F)(F)F)(C(F)(F)F)N=C(C(F)(F)C(F)(F)F)O2)cc1 [Compound 16, 2-(pentafluoroethyl)-6-{(4-trifluoromethoxy)phenyl}-4,4-bis(trifluoromethyl)-4H-1,3,5-oxadiazine]	–	100%	–	–	–	–	–	100%	100%	100%	100%	100%	found to have insecticidal properties
COc1cccc(C2=NC(C(F)(F)F)(C(F)(F)F)N=C(C(F)(F)C(F)(F)F)O2)c1 [Compound 23, 2-(3-methoxyphenyl)-6-(pentafluoroethyl)-4,4-bis(trifluoromethyl)-4H-1,3,5-oxadiazine]	100%	100%	–	100%	0%	50%	50%	–	–	–	–	–	–
FC(F)(F)C(F)(F)C(F)(F)C1=NC(C(F)(F)F)(C(F)(F)F)N=C(c2cccc(Cl)c2)O1 [Compound 26, 2-(3-chlorophenyl)-6-(heptafluoropropyl)-4,4-bis(trifluoromethyl)-4H-1,3,5-oxadiazine]	100%	100%	–	100%	100%	100%	100%	–	–	–	–	–	found to have insecticidal properties
